According to ChEMBL document CHEMBL1156794, “Synthesis and antimicrobial evaluation of amphiphilic neamine derivatives” (J Med Chem, 2010):
Converted amounts (≈) assume the structure as drawn.

Tests used:
Staphylococcus aureus [1] = experiment: Antibacterial activity against MsrA pump expressing Staphylococcus aureus after 24 hrs by geometric microdilution method; format: functional
Staphylococcus aureus [2] = experiment: Antibacterial activity against aminoglycoside-6'-N-acetyltransferase/2''-O-phosphoryltransferase expressing Staphylococcus aureus after 24 hrs by geometric microdilution method; format: functional
Staphylococcus aureus [3] = experiment: Antibacterial activity against aminoglycoside-3'-O-phosphoryltransferase expressing Staphylococcus aureus after 24 hrs by geometric microdilution method; format: functional
Staphylococcus aureus [4] = experiment: Antibacterial activity against aminoglycoside-4'-O-phosphoryltransferase expressing Staphylococcus aureus after 24 hrs by geometric microdilution method; format: functional
Staphylococcus aureus [5] = experiment: Antibacterial activity against methicillin-resistant Staphylococcus aureus ATCC 33592 clinical isolate after 24 hrs by geometric microdilution method; format: functional; details: ATCC 33592, 24 h
Staphylococcus aureus [6] = experiment: Antibacterial activity against vancomycin-resistant Staphylococcus aureus VRS-2 after 24 hrs by geometric microdilution method; format: functional; details: VRS-2, 24 h
Acinetobacter lwoffii [7] = experiment: Antibacterial activity against […] expressing Acinetobacter lwoffii AI.88-483 after 24 hrs by geometric microdilution method; format: functional; details: AI.88-483, 24 h
Pseudomonas aeruginosa [8] = experiment: Antibacterial activity against Pseudomonas aeruginosa ATCC 27853 after 24 hrs by geometric microdilution method; format: functional; details: ATCC 27853, 24 h
Pseudomonas aeruginosa [9] = experiment: Antibacterial activity against AAC6'-2a expressing Pseudomonas aeruginosa F03 after 24 hrs by geometric microdilution method; format: functional; details: F03, 24 h
Pseudomonas aeruginosa [10] = experiment: Antibacterial activity against MexXY expressing Pseudomonas aeruginosa PT629 after 24 hrs by geometric microdilution method; format: functional; details: PT629, 24 h
Klebsiella pneumoniae = experiment: Antibacterial activity against Klebsiella pneumoniae ATCC 700603 after 24 hrs by geometric microdilution method; format: functional; details: ATCC 700603, 24 h
Escherichia coli [11] = experiment: Antibacterial activity against AAC6'-2b expressing Escherichia coli PAZ505H8101 after 24 hrs by geometric microdilution method; format: functional; details: PAZ505H8101, 24 h
Escherichia coli [12] = experiment: Antibacterial activity against ANT2'-2a expressing Escherichia coli L58058.1 after 24 hrs by geometric microdilution method; format: functional; details: L58058.1, 24 h
Pseudomonas aeruginosa [13] = experiment: Antibacterial activity against Pseudomonas aeruginosa PAO1 after 24 hrs by geometric microdilution method; format: functional; details: PAO1, 24 h
Pseudomonas aeruginosa [14] = experiment: Antibacterial activity against MexCD expressing Pseudomonas aeruginosa PA01 after 24 hrs by geometric microdilution method; format: functional; details: PA01, 24 h
Pseudomonas aeruginosa [15] = experiment: Antibacterial activity against MexEF expressing Pseudomonas aeruginosa PA03 after 24 hrs by geometric microdilution method; format: functional; details: PA03, 24 h
Pseudomonas aeruginosa [16] = experiment: Antibacterial activity against MexAB expressing Pseudomonas aeruginosa PA21 after 24 hrs by geometric microdilution method; format: functional; details: PA21, 24 h
Pseudomonas aeruginosa [17] = experiment: Antibacterial activity against MexXY expressing Pseudomonas aeruginosa PA22 after 24 hrs by geometric microdilution method; format: functional; details: PA22, 24 h
Pseudomonas aeruginosa [18] = experiment: Antibacterial activity against TriABC expressing MexAB, MexCD, MexEF, MexXY deleted Pseudomonas aeruginosa PA405 after 24 hrs by geometric microdilution method; format: functional; details: PA405, 24 h
Pseudomonas aeruginosa [19] = experiment: Antibacterial activity against MexAB, MexCD, MexEF, MexXY, TriABC deleted Pseudomonas aeruginosa PA406 after 24 hrs by geometric microdilution method; format: functional; details: PA406, 24 h
Staphylococcus aureus [20] = experiment: Antibacterial activity against Staphylococcus aureus ATCC 25923 after 24 hrs by geometric microdilution method; format: functional; details: ATCC 25923, 24 h
Staphylococcus aureus [21] = experiment: Antibacterial activity against NorA pump expressing Staphylococcus aureus after 24 hrs by geometric microdilution method; format: functional
Acinetobacter lwoffii [22] = experiment: microbe, parasite or virus in culture; details: ATCC 17925, 24 h
Description: Antibacterial activity against Acinetobacter lwoffii ATCC 17925 after 24 hrs by geometric microdilution method

Escherichia coli [23] = experiment: microbe, parasite or virus in culture; details: ATCC 25922, 24 h
Description: Antibacterial activity against Escherichia coli ATCC 25922 after 24 hrs by geometric microdilution method

| SMILES | MIC (Staphylococcus aureus [1]) [mg/L] | MIC (Staphylococcus aureus [2]) [mg/L] | MIC (Staphylococcus aureus [3]) [mg/L] | MIC (Staphylococcus aureus [4]) [mg/L] | MIC (Staphylococcus aureus [20]) [mg/L] | MIC (Staphylococcus aureus [21]) [mg/L] | also measured |
| --- | --- | --- | --- | --- | --- | --- | --- |
| NC[C@H]1O[C@H](O[C@H]2[C@H](O)[C@@H](OCc3ccc4ccccc4n3)[C@H](N)C[C@@H]2N)[C@H](N)[C@@H](OCc2ccc3ccccc3n2)[C@@H]1OCc1ccc2ccccc2n1 | > 128 | 128 (≈ 172 µM) | 64 (≈ 85.8 µM) | > 128 | 128 (≈ 172 µM) | > 128 | MIC (Staphylococcus aureus [5]): 64 mg/L (≈ 85.8 µM); MIC (Staphylococcus aureus [6]): 64 mg/L (≈ 85.8 µM); MIC (Acinetobacter lwoffii [7]): > 128 mg/L; MIC (Pseudomonas aeruginosa [8]): > 128 mg/L; MIC (Pseudomonas aeruginosa [9]): > 128 mg/L; MIC (Pseudomonas aeruginosa [10]): > 128 mg/L; MIC (Klebsiella pneumoniae): > 128 mg/L; MIC (Escherichia coli [11]): > 128 mg/L; MIC (Escherichia coli [12]): > 128 mg/L; MIC (Pseudomonas aeruginosa [13]): > 128 mg/L; MIC (Pseudomonas aeruginosa [14]): > 128 mg/L; MIC (Pseudomonas aeruginosa [15]): > 128 mg/L; MIC (Pseudomonas aeruginosa [16]): > 128 mg/L; MIC (Pseudomonas aeruginosa [17]): > 128 mg/L; MIC (Pseudomonas aeruginosa [18]): 64 mg/L (≈ 85.8 µM); MIC (Pseudomonas aeruginosa [19]): 64 mg/L (≈ 85.8 µM); MIC (Acinetobacter lwoffii [22]): 128 mg/L (≈ 172 µM); MIC (Escherichia coli [23]): > 128 mg/L |
| NC[C@H]1O[C@H](O[C@H]2[C@H](O)[C@@H](O)[C@H](N)C[C@@H]2N)[C@H](N)[C@@H](OCc2ccc3ccccc3c2)[C@@H]1O | > 128 | > 128 | 128 (≈ 277 µM) | > 128 | > 128 | > 128 | – |
| NC[C@H]1O[C@H](O[C@H]2[C@H](OCc3ccc4ccccc4c3)[C@@H](O)[C@H](N)C[C@@H]2N)[C@H](N)[C@@H](O)[C@@H]1O | > 128 | > 128 | > 128 | > 128 | > 128 | > 128 | – |
| NC[C@H]1O[C@H](O[C@H]2[C@H](O)[C@@H](OCc3ccc4ccccc4c3)[C@H](N)C[C@@H]2N)[C@H](N)[C@@H](O)[C@@H]1OCc1ccc2ccccc2c1 | 32 (≈ 53.1 µM) | 32 (≈ 53.1 µM) | 16 (≈ 26.5 µM) | 16 (≈ 26.5 µM) | 32 (≈ 53.1 µM) | 32 (≈ 53.1 µM) | MIC (Staphylococcus aureus [5]): 64 mg/L (≈ 106 µM); MIC (Staphylococcus aureus [6]): 32 mg/L (≈ 53.1 µM); MIC (Acinetobacter lwoffii [7]): > 128 mg/L; MIC (Pseudomonas aeruginosa [8]): > 128 mg/L; MIC (Pseudomonas aeruginosa [9]): > 128 mg/L; MIC (Pseudomonas aeruginosa [10]): > 128 mg/L; MIC (Klebsiella pneumoniae): > 128 mg/L; MIC (Escherichia coli [11]): 64 mg/L (≈ 106 µM); MIC (Escherichia coli [12]): 128 mg/L (≈ 212 µM); MIC (Pseudomonas aeruginosa [13]): > 128 mg/L; MIC (Pseudomonas aeruginosa [14]): 128 mg/L (≈ 212 µM); MIC (Pseudomonas aeruginosa [15]): 16 mg/L (≈ 26.5 µM); MIC (Pseudomonas aeruginosa [16]): > 128 mg/L; MIC (Pseudomonas aeruginosa [17]): > 128 mg/L; MIC (Pseudomonas aeruginosa [18]): 32 mg/L (≈ 53.1 µM); MIC (Pseudomonas aeruginosa [19]): 16 mg/L (≈ 26.5 µM); MIC (Acinetobacter lwoffii [22]): 64 mg/L (≈ 106 µM); MIC (Escherichia coli [23]): 128 mg/L (≈ 212 µM) |

The next lines start with results.

| MIC (Staphylococcus aureus [1]) [mg/L] | MIC (Staphylococcus aureus [2]) [mg/L] | MIC (Staphylococcus aureus [3]) [mg/L] | MIC (Staphylococcus aureus [4]) [mg/L] | MIC (Staphylococcus aureus [20]) [mg/L] | MIC (Staphylococcus aureus [21]) [mg/L] | SMILES | also measured |
| --- | --- | --- | --- | --- | --- | --- | --- |
| > 128 | > 128 | > 128 | > 128 | > 128 | > 128 | NC[C@H]1O[C@H](O[C@H]2[C@H](O)[C@@H](OCc3ccccc3)[C@H](N)C[C@@H]2N)[C@H](N)[C@@H](OCc2ccccc2)[C@@H]1O | – |
| > 128 | > 128 | > 128 | > 128 | > 128 | > 128 | NC[C@H]1O[C@H](O[C@H]2[C@H](O)[C@@H](OCc3ccc4ccccc4n3)[C@H](N)C[C@@H]2N)[C@H](N)[C@@H](OCc2ccc3ccccc3n2)[C@@H]1O | – |
| > 128 | > 128 | > 128 | > 128 | > 128 | > 128 | NC[C@H]1O[C@H](O[C@H]2[C@H](O)[C@@H](O)[C@H](N)C[C@@H]2N)[C@H](N)[C@@H](O)[C@@H]1OCc1ccc2ccccc2c1 | – |
